Measured values from ChEMBL document CHEMBL1201862, “PubChem BioAssay data set” (2004).
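The compound was tested at five concentrations on cells cultured in 96-well plates, with a 48-hour exposure period. GI50 marks 50% less growth.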 Activity calls are given as the source filed them. Cut-off read from the data, not from the text of the source: active = GI50 up to about 1.1 µM and inactive = higher.

How the values were obtained:
Experiment in all cases: DTP human tumour cell line panel, 48 h
LOX IMVI = test system: LOX IMVI
Malme-3M = test system: Malme-3M
OVCAR-3 = test system: OVCAR-3
T47D = test system: T47D
NCI-H460 = test system: NCI-H460
IGROV-1 = test system: IGROV-1
SF-539 = test system: SF-539
SR = test system: SR
MOLT-4 = test system: MOLT-4
PC-3 = test system: PC-3
A549 = test system: A549
MDA-MB-435 = test system: MDA-MB-435
TK-10 = test system: TK-10
HCT-15 = test system: HCT-15
CCRF-CEM = test system: CCRF-CEM
COLO 205 = test system: COLO 205
SW-620 = test system: SW-620
Hs-578T = test system: Hs-578T
SNB-75 = test system: SNB-75
OVCAR-5 = test system: OVCAR-5
HOP-62 = test system: HOP-62
SK-OV-3 = test system: SK-OV-3
786-0 = test system: 786-0
HT-29 = test system: HT-29
EKVX = test system: EKVX
NCI/ADR-RES = test system: NCI/ADR-RES
U-251 = test system: U-251
UACC-257 = test system: UACC-257
OVCAR-8 = test system: OVCAR-8
MDA-MB-231 = test system: MDA-MB-231
NCI-H23 = test system: NCI-H23
RXF 393 = test system: RXF 393
HCT-116 = test system: HCT-116
M14 = test system: M14
SF-268 = test system: SF-268
SF-295 = test system: SF-295
ACHN = test system: ACHN
SNB-19 = test system: SNB-19
CAKI-1 = test system: CAKI-1
UACC-62 = test system: UACC-62
UO-31 = test system: UO-31
SN12C = test system: SN12C
HCC 2998 = test system: HCC 2998
OVCAR-4 = test system: OVCAR-4
SK-MEL-28 = test system: SK-MEL-28
SK-MEL-2 = test system: SK-MEL-2
RPMI-8226 = test system: RPMI-8226
NCI-H226 = test system: NCI-H226
A498 = test system: A498
K562 = test system: K562
HOP-92 = test system: HOP-92
KM12 = test system: KM12
MCF7 = test system: MCF7
DU-145 = test system: DU-145
MDA-N = test system: MDA-N
HL-60 = test system: HL-60
NCI-H522 = test system: NCI-H522
SK-MEL-5 = test system: SK-MEL-5

O=C1OC(c2ccccc2)=N/C1=C\c1cn[nH]n1
GI50 (LOX IMVI): > 100 µM (inactive)
GI50 (Malme-3M): 83.4 µM (inactive)
GI50 (OVCAR-3): > 100 µM (inactive)
GI50 (T47D): > 100 µM (inactive)
GI50 (NCI-H460): > 100 µM (inactive)
GI50 (IGROV-1): > 100 µM (inactive)
GI50 (SF-539): 70.1 µM (inactive)
GI50 (SR): 59.6 µM (inactive)
GI50 (MOLT-4): > 100 µM (inactive)
GI50 (PC-3): > 100 µM (inactive)
GI50 (A549): > 100 µM (inactive)
GI50 (MDA-MB-435): > 100 µM (inactive)
GI50 (TK-10): > 100 µM (inactive)
GI50 (HCT-15): > 100 µM
GI50 (CCRF-CEM): 97.1 µM (inactive)
GI50 (COLO 205): > 100 µM (inactive)
GI50 (SW-620): > 100 µM (inactive)
GI50 (Hs-578T): > 100 µM (inactive)
GI50 (SNB-75): > 100 µM (inactive)
GI50 (OVCAR-5): > 100 µM (inactive)
GI50 (HOP-62): > 100 µM (inactive)
GI50 (SK-OV-3): > 100 µM (inactive)
GI50 (786-0): > 100 µM (inactive)
GI50 (HT-29): > 100 µM (inactive)
GI50 (EKVX): > 100 µM (inactive)
GI50 (NCI/ADR-RES): > 100 µM (inactive)
GI50 (U-251): > 100 µM (inactive)
GI50 (UACC-257): > 100 µM (inactive)
GI50 (OVCAR-8): > 100 µM (inactive)
GI50 (MDA-MB-231): > 100 µM (inactive)
GI50 (NCI-H23): > 100 µM (inactive)
GI50 (RXF 393): > 100 µM (inactive)
GI50 (HCT-116): > 100 µM (inactive)
GI50 (M14): > 100 µM (inactive)
GI50 (SF-268): > 100 µM (inactive)
GI50 (SF-295): > 100 µM (inactive)
GI50 (ACHN): > 100 µM (inactive)
GI50 (SNB-19): > 100 µM (inactive)
GI50 (CAKI-1): > 100 µM (inactive)
GI50 (UACC-62): > 100 µM (inactive)
GI50 (UO-31): > 100 µM (inactive)
GI50 (SN12C): > 100 µM (inactive)
GI50 (HCC 2998): > 100 µM (inactive)
GI50 (OVCAR-4): > 100 µM (inactive)
GI50 (SK-MEL-28): > 100 µM (inactive)
GI50 (SK-MEL-2): > 100 µM (inactive)
GI50 (RPMI-8226): > 100 µM (inactive)
GI50 (NCI-H226): > 100 µM (inactive)
GI50 (A498): > 100 µM (inactive)
GI50 (K562): > 100 µM (inactive)
GI50 (HOP-92): > 100 µM (inactive)
GI50 (KM12): > 100 µM (inactive)
GI50 (MCF7): > 100 µM (inactive)
GI50 (DU-145): > 100 µM (inactive)
GI50 (MDA-N): > 100 µM (inactive)
GI50 (HL-60): > 100 µM (inactive)

COC(=N)c1ncn(Cc2ccccc2)c1N
GI50 (LOX IMVI): > 100 µM (inactive)
GI50 (Malme-3M): > 100 µM (inactive)
GI50 (OVCAR-3): > 100 µM (inactive)
GI50 (T47D): > 100 µM (inactive)
GI50 (NCI-H460): > 100 µM (inactive)
GI50 (IGROV-1): > 100 µM (inactive)
GI50 (SF-539): > 100 µM (inactive)
GI50 (PC-3): > 100 µM (inactive)
GI50 (NCI-H522): > 100 µM (inactive)
GI50 (A549): > 100 µM (inactive)
GI50 (MDA-MB-435): > 100 µM (inactive)
GI50 (TK-10): > 100 µM (inactive)
GI50 (HCT-15): > 100 µM
GI50 (CCRF-CEM): > 100 µM (inactive)
GI50 (COLO 205): > 100 µM (inactive)
GI50 (SW-620): > 100 µM (inactive)
GI50 (Hs-578T): > 100 µM (inactive)
GI50 (SNB-75): > 100 µM (inactive)
GI50 (OVCAR-5): > 100 µM (inactive)
GI50 (HOP-62): > 100 µM (inactive)
GI50 (SK-OV-3): > 100 µM (inactive)
GI50 (786-0): > 100 µM (inactive)
GI50 (HT-29): > 100 µM (inactive)
GI50 (EKVX): > 100 µM (inactive)
GI50 (NCI/ADR-RES): > 100 µM (inactive)
GI50 (U-251): > 100 µM (inactive)
GI50 (UACC-257): > 100 µM (inactive)
GI50 (OVCAR-8): > 100 µM (inactive)
GI50 (MDA-MB-231): > 100 µM (inactive)
GI50 (NCI-H23): > 100 µM (inactive)
GI50 (RXF 393): > 100 µM (inactive)
GI50 (HCT-116): > 100 µM (inactive)
GI50 (M14): > 100 µM (inactive)
GI50 (SF-268): > 100 µM (inactive)
GI50 (SF-295): > 100 µM (inactive)
GI50 (ACHN): > 100 µM (inactive)
GI50 (SNB-19): > 100 µM (inactive)
GI50 (CAKI-1): > 100 µM (inactive)
GI50 (UACC-62): > 100 µM (inactive)
GI50 (SN12C): > 100 µM (inactive)
GI50 (HCC 2998): > 100 µM (inactive)
GI50 (OVCAR-4): > 100 µM (inactive)
GI50 (SK-MEL-28): > 100 µM (inactive)
GI50 (SK-MEL-2): > 100 µM (inactive)
GI50 (RPMI-8226): > 100 µM (inactive)
GI50 (NCI-H226): > 100 µM (inactive)
GI50 (A498): > 100 µM (inactive)
GI50 (K562): > 100 µM (inactive)
GI50 (HOP-92): > 100 µM (inactive)
GI50 (KM12): > 100 µM (inactive)
GI50 (MCF7): > 100 µM (inactive)
GI50 (DU-145): > 100 µM (inactive)
GI50 (MDA-N): > 100 µM (inactive)
GI50 (SK-MEL-5): > 100 µM (inactive)
